Source: ChEMBL document CHEMBL2069259, “Preclinical strategy to reduce clinical hepatotoxicity using in vitro bioactivation data for >200 compounds” (Chem Res Toxicol, 2012)

Test system: Liver microsomes
Assay: Metabolic stability in human liver microsomes assessed as high signal/noise ratio (S/N of >100) by measuring GSH adduct formation at 100 uM after 90 mins by HPLC-MS analysis
Settings: 1.5 h

Compound | Stability
COc1cc(NS(C)(=O)=O)ccc1Nc1c2ccccc2nc2ccccc12 [AMSACRINE] | Unstable
Cn1cnc([N+](=O)[O-])c1Sc1ncnc2nc[nH]c12 [AZATHIOPRINE] | Unstable
C[C@H]1[C@H](NC(=O)/C(=N\OC(C)(C)C(=O)O)c2csc(N)n2)C(=O)N1S(=O)(=O)O [AZTREONAM] | Unstable
CS(=O)(=O)OCCCCOS(C)(=O)=O [BUSULFAN] | Unstable
NC(=O)N1c2ccccc2C=Cc2ccccc21 [CARBAMAZEPINE] | Unstable
CO/N=C(\C(=O)N[C@@H]1C(=O)N2C(C(=O)O)=C(CSc3nc(=O)c(=O)[nH]n3C)CS[C@H]12)c1csc(N)n1 [CEFTRIAXONE] | Unstable
CN/C(=N/CCSCc1nc[nH]c1C)NC#N [CIMETIDINE] | Unstable

Test system: Liver microsomes
Assay: Metabolic stability in human liver microsomes assessed as GSH adduct formation at 100 uM after 90 mins by HPLC-MS analysis
Settings: 1.5 h

Compound | Stability
CCN(CC)Cc1cc(Nc2ccnc3cc(Cl)ccc23)ccc1O.Cl | Unstable
Oc1ncnc2[nH]ncc12 [ALLOPURINOL] | Stable
CCCCC[C@H](O)/C=C/[C@H]1[C@H](O)CC(=O)[C@@H]1CCCCCCC(=O)O [ALPROSTADIL] | Stable
CC[C@H]1OC(=O)[C@H](C)[C@@H](O[C@H]2C[C@@](C)(OC)[C@@H](O)[C@H](C)O2)[C@H](C)[C@@H](O[C@@H]2O[C@H](C)C[C@H](N(C)C)[C@H]2O)[C@](C)(O)C[C@@H](C)CN(C)[C@H](C)[C@@H](O)[C@]1(C)O [AZITHROMYCIN] | Stable
C[C@H]1C[C@H]2[C@@H]3CCC4=CC(=O)C=C[C@]4(C)[C@@]3(Cl)[C@@H](O)C[C@]2(C)[C@@]1(O)C(=O)CO [BECLOMETHASONE] | Stable
CCCC1O[C@@H]2C[C@H]3[C@@H]4CCC5=CC(=O)C=C[C@]5(C)[C@H]4[C@@H](O)C[C@]3(C)[C@]2(C(=O)CO)O1 (some centres not stated) [BUDESONIDE] | Stable
Cn1c(=O)c2c(ncn2C)n(C)c1=O [CAFFEINE] | Stable
CCN1CCN(C(=O)N[C@@H](C(=O)N[C@@H]2C(=O)N3C(C(=O)O)=C(CSc4nnnn4C)CS[C@H]23)c2ccc(O)cc2)C(=O)C1=O [CEFOPERAZONE] | Stable
CC(C)(O/N=C(\C(=O)N[C@@H]1C(=O)N2C(C(=O)[O-])=C(C[n+]3ccccc3)CS[C@H]12)c1csc(N)n1)C(=O)O [CEFTAZIDIME] | Stable
CCN(CC)CCCC(C)Nc1ccnc2cc(Cl)ccc12 (configuration not stated) [CHLOROQUINE] | Stable
CN(C)CCCN1c2ccccc2Sc2ccc(Cl)cc21 [CHLORPROMAZINE] | Stable
CCCNC(=O)NS(=O)(=O)c1ccc(Cl)cc1 [CHLORPROPAMIDE] | Stable
COc1cc(N)c(Cl)cc1C(=O)NC1CCN(CCCOc2ccc(F)cc2)CC1OC (configuration not stated) [CISAPRIDE] | Stable
CCOC(=O)C(C)(C)Oc1ccc(Cl)cc1 [CLOFIBRATE] | Stable
O=C(O)c1cc(=O)c2c(OCC(O)COc3cccc4oc(C(=O)O)cc(=O)c34)cccc2o1 [CROMOLYN] | Stable
Nc1ccn([C@@H]2O[C@H](CO)[C@@H](O)[C@@H]2O)c(=O)n1 [CYTARABINE] | Stable
O=C1CN(/N=C/c2ccc(-c3ccc([N+](=O)[O-])cc3)o2)C(O)=N1 [DANTROLENE] | Stable
C[C@@H]1C[C@H]2[C@@H]3CCC4=CC(=O)C=C[C@]4(C)[C@@]3(F)[C@@H](O)C[C@]2(C)[C@@]1(O)C(=O)CO [DEXAMETHASONE] | Stable
O=c1[nH]cnc2c1ncn2[C@H]1CC[C@@H](CO)O1 [DIDANOSINE] | Stable
C[C@H]1O[C@@H](O[C@H]2[C@@H](O)C[C@H](O[C@H]3[C@@H](O)C[C@H](O[C@H]4CC[C@@]5(C)[C@H](CC[C@@H]6[C@@H]5C[C@@H](O)[C@]5(C)[C@@H](C7=CC(=O)OC7)CC[C@]65O)C4)O[C@@H]3C)O[C@@H]2C)C[C@H](O)[C@@H]1O [DIGOXIN] | Stable
COc1ccc([C@@H]2Sc3ccccc3N(CCN(C)C)C(=O)[C@@H]2OC(C)=O)cc1 [DILTIAZEM] | Stable
CC[C@H]1OC(=O)[C@H](C)[C@@H](O[C@H]2C[C@@](C)(OC)[C@@H](O)[C@H](C)O2)[C@H](C)[C@@H](O[C@@H]2O[C@H](C)C[C@H](N(C)C)[C@H]2O)[C@](C)(O)C[C@@H](C)C(=O)[C@H](C)[C@@H](O)[C@]1(C)O [ERYTHROMYCIN] | Stable
CC(O)(P(=O)(O)O)P(=O)(O)O [ETIDRONIC ACID] | Stable
NC(=O)OCC(COC(N)=O)c1ccccc1 [FELBAMATE] | Stable

Compound | Stability
CC(C)(C)NC(=O)[C@H]1CC[C@H]2[C@@H]3CC[C@H]4NC(=O)C=C[C@]4(C)[C@H]3CC[C@]12C [FINASTERIDE] | Stable
O=c1[nH]c(=O)n([C@H]2C[C@H](O)[C@@H](CO)O2)cc1F [FLOXURIDINE] | Stable
OC(Cn1cncn1)(Cn1cncn1)c1ccc(F)cc1F [FLUCONAZOLE] | Stable
COc1ccccc1OCC(O)CO (configuration not stated) [GUAIFENESIN] | Stable
COc1ccc2c3c1O[C@H]1C(=O)CC[C@H]4[C@@H](C2)N(C)CC[C@]314 [HYDROCODONE] | Stable
CN1CC[C@]23c4c5ccc(O)c4O[C@H]2C(=O)CC[C@H]3[C@H]1C5 [HYDROMORPHONE] | Stable
OCCOCCN1CCN(C(c2ccccc2)c2ccc(Cl)cc2)CC1 (configuration not stated) [HYDROXYZINE] | Stable
CC(C)Cc1ccc(C(C)C(=O)O)cc1 (configuration not stated) [IBUPROFEN] | Stable
COc1ccc2c(c1)c(CC(=O)O)c(C)n2C(=O)c1ccc(Cl)cc1 [INDOMETHACIN] | Stable
CC(CCc1ccccc1)NCC(O)c1ccc(O)c(C(N)=O)c1 (configuration not stated) [LABETALOL] | Stable
Nc1nnc(-c2cccc(Cl)c2Cl)c(N)n1 [LAMOTRIGINE] | Stable
CC(C)C[C@H](N)C(=O)O [LEUCINE] | Stable
CCNC(=O)[C@@H]1CCCN1C(=O)[C@H](CCCNC(=N)N)NC(=O)[C@H](CC(C)C)NC(=O)[C@@H](CC(C)C)NC(=O)[C@H](Cc1ccc(O)cc1)NC(=O)[C@H](CO)NC(=O)[C@H](Cc1c[nH]c2ccccc12)NC(=O)[C@H](Cc1c[nH]cn1)NC(=O)[C@@H]1CCC(=O)N1 [LEUPROLIDE] | Stable
CNCCCC12CCC(c3ccccc31)c1ccccc12 [MAPROTILINE] | Stable
CCOC(=O)C1(c2ccccc2)CCN(C)CC1 [MEPERIDINE] | Stable
C[C@H](N)[C@H](O)c1cccc(O)c1 [METARAMINOL] | Stable
CN[C@@H](C)Cc1ccccc1 [METHAMPHETAMINE] | Stable
CN(Cc1cnc2nc(N)nc(N)c2n1)c1ccc(C(=O)N[C@@H](CCC(=O)O)C(=O)O)cc1 [METHOTREXATE] | Stable
C[C@](N)(Cc1ccc(O)cc1)C(=O)O [METYROSINE] | Stable
Nc1cc(N2CCCCC2)nc(N)[n+]1[O-] [MINOXIDIL] | Unstable
NC(=O)C[S+]([O-])C(c1ccccc1)c1ccccc1 (configuration not stated) [MODAFINIL] | Stable
CCc1nn(CCCN2CCN(c3cccc(Cl)c3)CC2)c(=O)n1CCOc1ccccc1 [NEFAZODONE] | Stable
CN(C)C(=O)Oc1cccc([N+](C)(C)C)c1.[Br-] [NEOSTIGMINE BROMIDE] | Stable
CC1(C)NC(=O)N(c2ccc([N+](=O)[O-])c(C(F)(F)F)c2)C1=O [NILUTAMIDE] | Stable

Compound | Stability
CC1COc2c(N3CCN(C)CC3)c(F)cc3c(=O)c(C(=O)O)cn1c23 (configuration not stated) [OFLOXACIN] | Stable
Cc1cc2c(s1)Nc1ccccc1N=C2N1CCN(C)CC1 [OLANZAPINE] | Stable
Cc1ccccc1C(OCCN(C)C)c1ccccc1 (configuration not stated) [ORPHENADRINE] | Stable
CN1CC[C@]23c4c5ccc(O)c4O[C@H]2C(=O)CC[C@@]3(O)[C@H]1C5 [OXYMORPHONE] | Stable
NCCC(O)(P(=O)(O)O)P(=O)(O)O [PAMIDRONIC ACID] | Stable
CCC1(c2ccccc2)C(=O)NC(=O)NC1=O [PHENOBARBITAL] | Stable
CC(C)(N)Cc1ccccc1 [PHENTERMINE] | Stable
O=C1NC(=O)C(c2ccccc2)(c2ccccc2)N1 [PHENYTOIN] | Stable
CO[C@H](C(=O)[C@@H](O)[C@@H](C)O)[C@@H]1Cc2cc3cc(O[C@H]4C[C@@H](O[C@H]5C[C@@H](O)[C@H](O)[C@@H](C)O5)[C@H](O)[C@@H](C)O4)c(C)c(O)c3c(O)c2C(=O)[C@H]1O[C@H]1C[C@@H](O[C@H]2C[C@@H](O[C@H]3C[C@](C)(O)[C@H](O)[C@@H](C)O3)[C@@H](O)[C@@H](C)O2)[C@H](O)[C@@H](C)O1 [PLICAMYCIN] | Stable
CC(=O)[C@H]1CC[C@H]2[C@@H]3CCC4=CC(=O)CC[C@]4(C)[C@H]3CC[C@]12C [PROGESTERONE] | Stable
NC(=O)c1cnccn1 [PYRAZINAMIDE] | Stable
CCN1CCC[C@H]1CNC(=O)c1c(OC)ccc(Br)c1OC [REMOXIPRIDE] | Stable
O=P(O)(O)C(O)(Cc1cccnc1)P(=O)(O)O [RISEDRONIC ACID] | Stable
CC(C)NCC(O)c1ccc(NS(C)(=O)=O)cc1 (configuration not stated) [SOTALOL] | Stable
CCN1CCCC1CNC(=O)c1cc(S(N)(=O)=O)ccc1OC (configuration not stated) [SULPIRIDE] | Stable
CC/C(=C(\c1ccccc1)c1ccc(OCCN(C)C)cc1)c1ccccc1 [TAMOXIFEN] | Stable
COc1cc2nc(N3CCN(C(=O)C4CCCO4)CC3)nc(N)c2cc1OC (configuration not stated) [TERAZOSIN] | Stable
C[C@]12CC[C@H]3[C@@H](CCC4=CC(=O)CC[C@@]43C)[C@@H]1CC[C@@H]2O [TESTOSTERONE] | Stable
Cc1cccc(Nc2ccncc2S(=O)(=O)NC(=O)NC(C)C)c1 [TORSEMIDE] | Stable
C[C@]12C=CC(=O)C=C1CC[C@H]1[C@@H]3C[C@@H](O)[C@](O)(C(=O)CO)[C@@]3(C)C[C@H](O)[C@@]12F [TRIAMCINOLONE] | Stable
Cc1cn([C@H]2C[C@H](N=[N+]=[N-])[C@@H](CO)O2)c(=O)[nH]c1=O [ZIDOVUDINE] | Stable
GENTAMICIN | Stable
